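Five compound concentrations were applied to cells in 96-well plates for 48 hours; endpoints were derived by simple linear interpolation of the resulting dose-response curve. GI50 is the concentration that inhibits growth by half.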 The source made the active and inactive calls. No stated cut-off is given here; in the data, active = GI50 up to about 1.1 µM and inactive = higher.
Experiments:
Assay in all cases: NCI tumour cell line growth inhibition, 48 h
HT-29 = test system: HT-29
SR = test system: SR
SW-620 = test system: SW-620
HCT-15 = test system: HCT-15
SK-MEL-28 = test system: SK-MEL-28
MDA-MB-435 = test system: MDA-MB-435
NCI-H23 = test system: NCI-H23
RPMI-8226 = test system: RPMI-8226
SF-539 = test system: SF-539
SN12C = test system: SN12C
UACC-257 = test system: UACC-257
786-0 = test system: 786-0
HOP-92 = test system: HOP-92
SK-MEL-5 = test system: SK-MEL-5
NCI/ADR-RES = test system: NCI/ADR-RES
SK-MEL-2 = test system: SK-MEL-2
DU-145 = test system: DU-145
ACHN = test system: ACHN
HOP-62 = test system: HOP-62
SF-295 = test system: SF-295

| SMILES | GI50 (HT-29) | GI50 (SR) | GI50 (SW-620) | GI50 (HCT-15) | GI50 (SK-MEL-28) | GI50 (MDA-MB-435) | GI50 (NCI-H23) | GI50 (RPMI-8226) | GI50 (SF-539) | GI50 (SN12C) | GI50 (UACC-257) | GI50 (786-0) | GI50 (HOP-92) | GI50 (SK-MEL-5) | GI50 (NCI/ADR-RES) | GI50 (SK-MEL-2) | GI50 (DU-145) | GI50 (ACHN) | GI50 (HOP-62) | GI50 (SF-295) |
| --- | --- | --- | --- | --- | --- | --- | --- | --- | --- | --- | --- | --- | --- | --- | --- | --- | --- | --- | --- | --- |
| O=C1CSC2(CC(/C=C/c3ccccc3)=NN2c2cccc(S(=O)(=O)O)c2)N1c1nc2ccccc2s1 (stereo unspecified) | 38.3 µM (inactive) | 21.8 µM (inactive) | 29.6 µM (inactive) | 32.6 µM | 62.4 µM (inactive) | 19.5 µM (inactive) | 22 µM (inactive) | 24.6 µM (inactive) | 39.7 µM (inactive) | 28.7 µM (inactive) | 60 µM (inactive) | 18.3 µM (inactive) | 21.7 µM (inactive) | 44.6 µM (inactive) | 34.1 µM (inactive) | 22.6 µM (inactive) | 25.4 µM (inactive) | 27 µM (inactive) | – | – |
| O=P1(O)C=CC2(CCCC2)O1 | > 100 µM (inactive) | > 100 µM (inactive) | > 100 µM (inactive) | > 100 µM | > 100 µM (inactive) | > 100 µM (inactive) | > 100 µM (inactive) | – | > 100 µM (inactive) | > 100 µM (inactive) | > 100 µM (inactive) | > 100 µM (inactive) | > 100 µM (inactive) | > 100 µM (inactive) | > 100 µM (inactive) | > 100 µM (inactive) | > 100 µM (inactive) | > 100 µM (inactive) | > 100 µM (inactive) | > 100 µM (inactive) |
| O=C1OC(=O)C2=C1C(c1cccs1)C=C(c1cccnc1)N2c1ccncc1 (stereo unspecified) | 16.8 µM (inactive) | 1.12 µM (active) | 20.7 µM (inactive) | 14.2 µM | 24.3 µM (inactive) | 20 µM (inactive) | 17.6 µM (inactive) | 13 µM (inactive) | – | 17.1 µM (inactive) | 12.3 µM (inactive) | 17.3 µM (inactive) | 12.8 µM (inactive) | 17.4 µM (inactive) | 29.4 µM (inactive) | 15.4 µM (inactive) | 16.6 µM (inactive) | 16.5 µM (inactive) | 15.8 µM (inactive) | 20.9 µM (inactive) |
| O=NN1CCNC1Cc1ccccc1 (stereo unspecified) | > 100 µM (inactive) | 23.8 µM (inactive) | > 100 µM (inactive) | > 100 µM | > 100 µM (inactive) | > 100 µM (inactive) | 72.1 µM (inactive) | 70 µM (inactive) | 48.9 µM (inactive) | 63 µM (inactive) | > 100 µM (inactive) | 52.8 µM (inactive) | > 100 µM (inactive) | 72.6 µM (inactive) | > 100 µM (inactive) | – | 50.9 µM (inactive) | 37.6 µM (inactive) | 58.5 µM (inactive) | 49 µM (inactive) |
| NC(=O)c1c(NC=O)ncn1C1OCC(O)C(O)C1O (stereo unspecified) | > 100 µM (inactive) | > 100 µM (inactive) | > 100 µM (inactive) | > 100 µM | – | > 100 µM (inactive) | > 100 µM (inactive) | > 100 µM (inactive) | > 100 µM (inactive) | > 100 µM (inactive) | > 100 µM (inactive) | > 100 µM (inactive) | > 100 µM (inactive) | > 100 µM (inactive) | > 100 µM (inactive) | > 100 µM (inactive) | > 100 µM (inactive) | > 100 µM (inactive) | > 100 µM (inactive) | > 100 µM (inactive) |
| OC[C@H]1CCCC1O (stereo partly specified) | > 100 µM (inactive) | > 100 µM (inactive) | > 100 µM (inactive) | > 100 µM | > 100 µM (inactive) | > 100 µM (inactive) | > 100 µM (inactive) | > 100 µM (inactive) | > 100 µM (inactive) | > 100 µM (inactive) | > 100 µM (inactive) | > 100 µM (inactive) | > 100 µM (inactive) | > 100 µM (inactive) | > 100 µM (inactive) | > 100 µM (inactive) | > 100 µM (inactive) | > 100 µM (inactive) | – | > 100 µM (inactive) |
| C[B@@-]1(c2ccc(C(F)(F)F)cc2)N[C@@H](Cc2ccccc2)C(=O)O1 | > 100 µM (inactive) | > 100 µM (inactive) | > 100 µM (inactive) | > 100 µM | > 100 µM (inactive) | > 100 µM (inactive) | > 100 µM (inactive) | > 100 µM (inactive) | – | > 100 µM (inactive) | > 100 µM (inactive) | > 100 µM (inactive) | 11.9 µM (inactive) | > 100 µM (inactive) | > 100 µM (inactive) | – | > 100 µM (inactive) | > 100 µM (inactive) | > 100 µM (inactive) | > 100 µM (inactive) |
